Data taken from patent US7598244B2, “[1,2,4]triazolo[1,5,a]pyrimidin-2-ylurea derivative and use thereof” (Nippon Kayaku Kabushiki Kaisha, priority 2003, dated 2009).

Test system: MHC class I molecules of T1 cells (human lymphoma cell line 174×CEM.)
Test: Effect on expression of MHC class I from T1 cells (flow cytometry, MFI)
Assay type: cell-based
Conditions: 3 days culture
Protocol: Effect on Expression of MHC Class I from T1 Cells (Human Lymphoma Cell Line 174×CEM.)
Using a 96-well flat bottom microplate, T1 cells (5.7×10^3 cells/200 μl/well) were cultured in an RPMI 1640 medium (Iwaki Glass) containing 10% fetal bovine serum (hereinafter abbreviated as FBS; Iruvine Scientific) in an incubator containing 5% carbon dioxide at 37° C. for 3 days, in the presence of a test compound having each concentration obtained by dilution at a common ratio route of 10 from 400 μM. After completion of the culture, the cells were stained with fluoroisothiocyanate-labeled mouse anti-human MHC class I monoclonal antibody (an antibody produced from the cell line W6/32 (ATCC No. CRL 1991)). The mean fluorescence intensity of the stained cells (hereinafter referred to as MFI) was measured using flow cytometry FACScan (BD). The obtained value was defined as an expression level of MHC class I molecules. A test compound concentration necessary for suppressing 20% of the expression level of MHC class I molecules (EC20 value) was calculated using the following formula (1).
[formula] • Eexp: MFI of cultured cells containing test compound after being stained with antibody • Cexp: MFI of cultured cells containing no test compounds after being stained with antibody

Molecule	EC20 (concentration necessary for suppressing 20% of the expression level of MHC class I molecules) [nM]
O=C(Nc1nc2nccc(-c3cccc(Cl)c3)n2n1)NC1CCCCC1 [Example 016]	730
COc1cc(C(C)NC(=O)Nc2nc3nccc(-c4cccc(Cl)c4)n3n2)cc(OC)c1OC (stereo not drawn) [Example 305]	520
CC(NC(=O)Nc1nc2nccc(-c3cccs3)n2n1)c1ccc2c(c1)OCO2 (stereo not drawn) [Example 295]	790
COc1cccc([C@H](C)NC(=O)Nc2nc3nccc(-c4cccc(OCCc5ccccn5)c4)n3n2)c1 [Example 208]	180
O=C(Nc1nc2nccc(-c3ccc(O)c(O)c3)n2n1)NC1CCCCC1 [Example 068]	140
COc1cccc([C@H](C)NC(=O)Nc2nc3nccc(-c4cccs4)n3n2)c1 [Example 181]	430
COc1ccc(-c2ccnc3nc(NC(=O)NC45CC6CC(CC(C6)C4)C5)nn23)cc1 [Example 035]	380
COc1ccc([C@H](C)NC(=O)Nc2nc3nccc(-c4cccs4)n3n2)cc1 [Example 176]	200
CCOCC[C@H](C)NC(=O)Nc1nc2nccc(-c3ccc(O)cc3)n2n1 [Example 329]	60
COc1ccc(-c2ccnc3nc(NC(=O)NCC(=O)Nc4ccccc4)nn23)cc1 [Example 144]	460
CC(=O)OC(C)(C)C(=O)N(C)CCC(C)NC(=O)Nc1nc2nccc(-c3cccs3)n2n1 (stereo not drawn) [Example 299]	430
COc1ccc(-c2ccnc3nc(NC(=O)N[C@H](C(=O)NCCc4ccccn4)C(C)C)nn23)cc1 [Example 080]	710
CC(C)COc1cccc(-c2ccnc3nc(NC(=O)NC4CCCCC4)nn23)c1 [Example 108]	130
COCCOc1ccc(-c2ccnc3nc(NC(=O)N[C@@H](C)c4cccc(OC)c4)nn23)cc1OCCOC [Example 251]	60
CNC(=O)C1CCCC(NC(=O)Nc2nc3nccc(-c4ccc(OC)cc4)n3n2)C1 (stereo not drawn) [Example 174]	330
COc1cccc([C@H](C)NC(=O)Nc2nc3nccc(-c4cccc(OCc5cccnc5)c4)n3n2)c1 [Example 202]	60
CNC(=O)Nc1nc2nccc(-c3cccs3)n2n1 [Example 013]	480
COCCN(CCOC)C(=O)[C@@H](NC(=O)Nc1nc2nccc(-c3ccc(OC)cc3)n2n1)C(C)C [Example 097]	470
CC[C@H](NC(=O)Nc1nc2nccc(-c3ccc(OC)cc3)n2n1)C(=O)Nc1ccccc1 [Example 148]	260
O=C(Nc1nc2nccc(-c3cccc(OCc4ccncc4)c3)n2n1)NC1CCCCC1 [Example 171]	290
CC(NC(=O)Nc1nc2nccc(-c3cccc(OCc4cccnc4)c3)n2n1)c1ccc2c(c1)OCO2 (stereo not drawn) [Example 306]	230
CCC(CC)NC(=O)Nc1nc2nccc(-c3ccc(OC)cc3)n2n1 [Example 128]	540
COc1ccc(-c2ccnc3nc(NC(=O)NC(C)c4cccc(OS(C)(=O)=O)c4)nn23)cc1 (racemic) [Example 195]	60
COc1cccc([C@H](C)NC(=O)Nc2nc3nccc(-c4cccc(OCCC5OCCCO5)c4)n3n2)c1 [Example 207]	60
COC(C)(C)CCC[C@H](C)NC(=O)Nc1nc2nccc(-c3cccs3)n2n1 [Example 288]	20
COc1ccc(-c2ccnc3nc(NC(=O)N[C@H](C(=O)N(C)C)C(C)C)nn23)cc1 [Example 056]	550

Molecule	EC20 (concentration necessary for suppressing 20% of the expression level of MHC class I molecules) [nM]
COC(=O)[C@H](C)NC(=O)[C@@H](NC(=O)Nc1nc2nccc(-c3ccc(OC)cc3)n2n1)C(C)C [Example 098]	140
CC(C)COc1cccc(-c2ccnc3nc(NC(=O)NC(C)C)nn23)c1 [Example 172]	240
CC(CCCC(=O)N1CCOCC1)NC(=O)Nc1nc2nccc(-c3cccs3)n2n1 (stereo not drawn) [Example 287]	770
COc1cccc([C@H](C)NC(=O)Nc2nc3nccc(-c4cccc(OCCN5CCOCC5)c4)n3n2)c1.Cl [Example 204]	70
CC(C)CCC[C@H](C)NC(=O)Nc1nc2nccc(-c3cccc(OCc4ccccc4)c3)n2n1 [Example 256]	550
1-(4-methoxy-1-methylbutyl)-3-[7-(4-methoxyphenyl)-[1,2,4]triazolo[1,5-a]pyrimidin-2-yl]urea [Example 333]	410
COc1ccc(-c2ccnc3nc(NC(=O)N[C@H](C(=O)NCCc4ccncc4)C(C)C)nn23)cc1 [Example 116]	570
COc1ccc(-c2ccnc3nc(NC(=O)NC(C)CCCN(C)C(=O)OC(C)(C)C)nn23)cc1 (stereo not drawn) [Example 282]	58
COc1ccc(-c2ccnc3nc(NC(=O)NCCCn4ccnc4)nn23)cc1 [Example 066]	720
COc1cccc([C@H](C)NC(=O)Nc2nc3nccc(-c4ccc(OCc5ccccc5)cc4)n3n2)c1 [Example 222, (S)-1-[7-(4-benzyloxyphenyl)-[1,2,4]triazolo[1,5-a]pyrimidin-2-yl]-3-[1-(3-methoxyphenyl)ethyl]urea]	100
CCOC(=O)N1CCC(NC(=O)Nc2nc3nccc(-c4ccc(OC)cc4)n3n2)CC1 [Example 138]	150
COc1cccc([C@H](C)NC(=O)Nc2nc3nccc(-c4ccc(O)cc4)n3n2)c1 [Example 223, (S)-1-[7-(4-hydroxyphenyl)-[1,2,4]triazolo[1,5-a]pyrimidin-2-yl]-3-[1-(3-methoxyphenyl)ethyl]urea]	14
COc1ccc(-c2ccnc3nc(NC(=O)N[C@@H](C)C(C)=O)nn23)cc1 [Example 220]	720
O=C(Nc1ccc(O)cc1)Nc1nc2nccc(-c3cccs3)n2n1 [Example 023]	430
CC[C@H](NC(=O)Nc1nc2nccc(-c3ccc(OC)cc3)n2n1)C(=O)NC(C)C(=O)OC (stereo partly drawn) [Example 150]	710
CCOCCC(C)NC(=O)Nc1nc2nccc(-c3ccc4c(c3)OCO4)n2n1 (stereo not drawn) [Example 327, 1-[7-(3,4-methylenedioxyphenyl)-[1,2,4]triazolo[1,5-a]pyrimidin-2-yl]-3-(3-ethoxy-1-methylpropyl)urea]	150
COc1ccc(-c2ccnc3nc(NC(=O)N[C@@H](C)C(=O)N4CCN(C)CC4)nn23)cc1 [Example 123]	480
COC(=O)C1CCC(NC(=O)Nc2nc3nccc(-c4ccc(OC)cc4)n3n2)CC1 (stereo not drawn) [Example 167]	200
COCC/C=C/[C@H](C)NC(=O)Nc1nc2nccc(-c3cccs3)n2n1 [Example 290]	340
CC(C)NC(=O)Nc1nc2nccc(-c3cccc(OCc4ccncc4)c3)n2n1 [Example 193]	310
COc1ccc(-c2ccnc3nc(NC(=O)N[C@H](C(=O)NCc4ccccc4)C(C)C)nn23)cc1 [Example 089]	210
COc1ccc(-c2ccnc3nc(NC(=O)N[C@@H](C)C(C)(C)C)nn23)cc1 [Example 217]	320
COc1ccc(-c2ccnc3nc(NC(=O)N[C@H](C(=O)NC4CCCCC4)C(C)C)nn23)cc1 [Example 094]	200
COc1cccc(-c2ccnc3nc(NC(=O)N[C@@H](C)CCCC(C)C)nn23)c1 [Example 188]	80
O=C(Nc1nc2nccc(-c3cccc(OCc4ccccc4)c3)n2n1)NC1CCCCC1 [Example 115]	600
